This is an account of results in US6077841A, “5-heterocyclyl pyrazolo[4,3-d]pyrimidin-7-ones for the treatment of male erectile dysfunction” (Janssen Pharmaceutica, N.V., priority 1999, dated 2000).

Data set [1] has as its target PDE V (Oryctolagus cuniculus, UniProt G1SX67). As to the kind of experiment: Measurement of Inhibition of PDE V (cyclic nucleotide phosphodiesterase assay). It counts as biochemical, rabbit. The settings on record: for inhibition at 10 µM / inhibition at 20 µM: read-out: Activity Inhibition % at (conc. μM); for IC50: 1 μM cGMP or cAMP, pH 7.4, 30° C., 30 minutes, 10% DMSO, read-out: Activity IC50 (PDEV inhibitory activity).

For data set [2], the system named is erectile dysfunction. The conditions noted are these: cited from earlier work.
The subject of data set [3] is erectile dysfunction. The conditions noted are these: cited from earlier work. The source holds these as a separate data set.

Molecules are shown by their SMILES. Read-outs that look alike come from different tables or passages of the source.

For orientation: inhibition means the relative decrease from the control value, in per cent. For `CCCc1nn(C)c2c(=O)[nH]c(-c3sc(S(=O)(=O)N4CCN(c5ccccc5)CC4)cc3O)nc12` [Compound 17], the inhibition at 10 µM in data set [1] was determined as 28%.
For the compound `CCCc1nn(C)c2c(=O)[nH]c(-c3sc(S(=O)(=O)N4CCN(Cc5ccccc5)CC4)cc3O)nc12` [Compound 14], the inhibition at 20 µM in data set [1] is 18%.
For orientation: IC50 means the concentration that gives 50% inhibition. With `CCCc1nn(C)c2c(=O)[nH]c(-c3sc(S(=O)(=O)N(C)C)cc3OCC)nc12` [Compound 22], the 50% inhibitory concentration (IC50) in data set [1] came to 1400 nM.
As for `CCCc1nn(C)c2c(=O)[nH]c(-c3cc4cccc(OCC)c4o3)nc12` [Compound 7, 5-(7-Ethoxybenzofuran-2-yl)-1-methyl-3-n-propyl-6,7-dihydro-1H-pyrazolo-[4,3-d]pyrimidin-7-one], the concentration for half-maximal inhibition (IC50) in data set [1] stood at 910 nM.
As for `CCCc1nn(C)c2c(=O)[nH]c(-c3cc(S(=O)(=O)N4CCN(c5ncccn5)CC4)cn3C)nc12` [Compound 32], the inhibition at 10 µM in data set [1] amounted to 31%.
In the case of `CCCc1nn(C)c2c(=O)[nH]c(-c3sc(S(=O)(=O)N4CCN(CC)CC4)cc3OCC)nc12` [Compound 24], the IC50 in data set [1] amounted to 2300 nM.
In the case of `CCCc1nn(C)c2c(=O)[nH]c(-c3sc(S(=O)(=O)N4CCN(C)CC4)cc3O)nc12` [Compound 6, 5-[3-hydroxy-5-(4-methylpiperazinylsulfonyl)-thiophene-2-yl]-1-methyl-3-n-propyl-6,7-dihydro-1H-pyrazolo-[4,3-d]pyrimidin-7-one], in data set [1], the half-maximal inhibitory concentration (IC50) worked out at 10000 nM.
In the case of `CCCc1nn(C)c2c(=O)[nH]c(-c3sc(S(=O)(=O)N4CCN(Cc5ccccc5)CC4)cc3OCC)nc12` [Compound 13], in data set [1], the inhibition at 20 µM was determined as 46%.
Take `CCCCC[C@H](O)/C=C/[C@H]1[C@H](O)CC(=O)[C@@H]1CCCCCCC(=O)O` [alprostadil]: the side effects result in data set [2] (in vivo) was “priapism, fibrosis, penile pain and hematoma at the injection site”.
On to `CCCc1nn(C)c2c(=O)[nH]c(-c3sc(S(=O)(=O)N4CCN(C(N)=O)CC4)cc3O)nc12` [Compound 21], for which the inhibition at 10 µM in data set [1] was 30%.
In the case of `CCCc1nn(C)c2c(=O)[nH]c(-c3sc(S(=O)(=O)N4CCN(c5ncccn5)CC4)cc3O)nc12` [Compound 15], the inhibition at 20 µM in data set [1] is 13%.
With `CCCc1nn(C)c2c(=O)[nH]c(-c3sc(S(=O)(=O)N4CCN(C)CC4)cc3OCC)nc12` [Compound 5, 5-[3-Ethoxy-5-(4-methylpiperazinylsulfonyl)-thiophene-2-yl]-1-methyl-3-n-propyl-6,7-dihydro-1H-pyrazolo-[4,3-d]pyrimidin-7-one], the IC50 in data set [1] was found to be 8000 nM.
As for `CCCc1nn(C)c2c(=O)[nH]c(-c3cccn3C)nc12` [Compound 10], in data set [1], the 50% inhibitory concentration (IC50) is 3500 nM.
As for `CCCc1nn(C)c2c(=O)[nH]c(-c3sc(S(=O)(=O)N4CCN(C/C=C/c5ccccc5)CC4)cc3O)nc12` [Compound 19], in data set [1], the inhibition at 10 µM was 27%.
`CCCc1nn(C)c2c(=O)[nH]c(-c3sc(S(=O)(=O)N4CCN(C5CCCCC5)CC4)cc3O)nc12` [Compound 31]: in data set [1], the inhibition at 10 µM was 31%.
`CCCc1nn(C)c2c(=O)[nH]c(-c3cc4c(S(=O)(=O)N5CCN(C)CC5)cc(S(=O)(=O)N5CCN(C)CC5)c(OCC)c4o3)nc12` [Compound 9]: the inhibition at 20 µM in data set [1] was determined as 6%.
Turning to `CCCc1nn(C)c2c(=O)[nH]c(-c3sccc3OCC)nc12` [Compound 4, 5-(3-Ethoxythiophene-2-yl)-1-methyl-3-n-propyl-6,7-dihydro-1H-pyrazolo-[4,3-d]pyrimidin-7-one], in data set [1], the IC50 was determined as 470 nM.
On to `CCCc1nn(C)c2c(=O)[nH]c(-c3sc(S(=O)(=O)N4CCN(c5ccccc5)CC4)cc3OCC)nc12` [Compound 16], for which the inhibition at 10 µM in data set [1] was found to be 19%.
Regarding `CCCc1nn(C)c2c(=O)[nH]c(-c3sc(S(=O)(=O)N4CCN(c5ncccn5)CC4)cc3OCC)nc12` [Compound 12], the IC50 in data set [1] is 1200 nM.
For the compound `CCCc1nn(C)c2c(=O)[nH]c(-c3sc(S(=O)(=O)N4CCN(C5CCCCC5)CC4)cc3OCC)nc12` [Compound 30], the inhibition at 10 µM in data set [1] came to 33%.
Still for that read-out and setting: as for `CCCc1nn(C)c2c(=O)[nH]c(-c3sc(S(=O)(=O)N(C)CCN(C)C)cc3O)nc12` [Compound 27], the figure is 32%.
Turning to `CCCc1nn(C)c2c(=O)[nH]c(-c3sc(S(=O)(=O)N4CCC(N(C)C)CC4)cc3OCC)nc12` [Compound 29], the concentration for half-maximal inhibition (IC50) in data set [1] turned out to be 8300 nM.
Same read-out and setting: the figure for `CCCc1nn(C)c2c(=O)[nH]c(-c3cccs3)nc12` [Compound 28] is 1600 nM.
Regarding `COc1ccc(Cc2nccc3cc(OC)c(OC)cc23)cc1OC` [papaverine], in data set [2] (direct intracavernosal or intraurethral injection), the side effects result was “priapism, fibrosis, penile pain and hematoma at the injection site”.
With `CCCc1nn(C)c2c(=O)[nH]c(-c3sc(S(=O)(=O)N4CCN(C/C=C/c5ccccc5)CC4)cc3OCC)nc12` [Compound 18], the inhibition at 10 µM in data set [1] came out at 44%.
Take `CCCc1nn(C)c2c(=O)[nH]c(-c3cc(S(=O)(=O)N4CCN(C)CC4)cn3C)nc12` [Compound 11]: the inhibition at 10 µM in data set [1] came to 31%.
Take `CCCc1nn(C)c2c(=O)[nH]c(-c3cc4c(S(=O)(=O)N5CCN(C)CC5)ccc(OCC)c4o3)nc12` [Compound 8]: in data set [1], the IC50 came to 5400 nM.
For `CCCc1nn(C)c2c(=O)[nH]c(-c3cc(S(=O)(=O)N4CCN(C)CC4)ccc3OCC)nc12` [sildenafil, 5-[2-ethoxy-5-(4-methylpiperazin-1-ylsulphonyl)phenyl]-1-methyl-3-n-propyl-6,7-dihydro-1H-pyrazolo[4,3-d]pyrimidin-7-one], the “improved sexual function in men who suffer from ED” value in data set [3] (ED of psychogenic or organic etiology, share of men) was “about 70%”. In data set [3] (patients who had undergone a radical prostatectomy, versus 15% on placebo), the “patients with improved erections” value is 43%. The undesirable side effects result in data set [3] (use of sildenafil) was “headache, flushing and disrupted color vision”.
With `CCCc1nn(C)c2c(=O)[nH]c(-c3sc(S(=O)(=O)N(C)C)cc3O)nc12` [Compound 23], the inhibition at 10 µM in data set [1] turned out to be 30%.
In the case of `Cc1ccc(N(CC2=NCCN2)c2cccc(O)c2)cc1` [phentolamine], the side effects entry in data set [2] (in vivo) was “priapism, fibrosis, penile pain and hematoma at the injection site”.
As to `CCCc1nn(C)c2c(=O)[nH]c(-c3sc(S(=O)(=O)N4CCN(C(N)=O)CC4)cc3OCC)nc12` [Compound 20], the IC50 in data set [1] was 950 nM.
`CCCc1nn(C)c2c(=O)[nH]c(-c3sc(S(=O)(=O)N4CCN(CC)CC4)cc3O)nc12` [Compound 25]: the inhibition at 10 µM in data set [1] worked out at 26%.
In the case of `CCCc1nn(C)c2c(=O)[nH]c(-c3sc(S(=O)(=O)N(C)CCN(C)C)cc3OCC)nc12` [Compound 26], in data set [1], the 50% inhibitory concentration (IC50) turned out to be 4900 nM.
